ChEMBL document CHEMBL2407044, “Synthesis, Antiplasmodial Activity, and β-Hematin Inhibition of Hydroxypyridone-Chloroquine Hybrids” (ACS Med Chem Lett, 2013)
Calls of active or inactive are those of the source. The calls are words filed in the database; no cut-off is given here.

Columns and labels:
[1] = Inhibition of beta-hematin formation after 60 mins relative to beta-hematin; format: functional
[2] = system: Plasmodium falciparum; test: Antiplasmodial activity against chloroquine-resistant Plasmodium falciparum K1 assessed as parasite growth inhibition after 24 hrs by [3H]-hypoxathine incorporation assay; format: functional, organism-based
[3] = system: KB; test: Cytotoxicity against human KB cells after 72 hrs by Alamar blue assay; format: cell-based
[4] = system: Plasmodium falciparum; test: Antiplasmodial activity against chloroquine-resistant Plasmodium falciparum W2 assessed as parasite survival after 2 days by YOYO-1 staining-based flow cytometric analysis; format: functional, organism-based; details: W2, 48 h
[5] = Inhibition of beta-hematin formation at 10 times parental IC50 after 60 mins; format: functional
[6] = system: Plasmodium falciparum; test: Antiplasmodial activity against chloroquine-sensitive Plasmodium falciparum 3D7 assessed as parasite growth inhibition after 24 hrs by [3H]-hypoxathine incorporation assay; format: functional, organism-based

Row | SMILES | IC50 [1] | IC50 [2] | IC50 ([3]; kb) | IC50 [4] | IC50 ([3]; Homo sapiens, KB, 72 h) | inhibition [5] | IC50 ([2]; Plasmodium falciparum, K1) | IC50 [6]
1 | CCc1c(OCc2ccccc2)c(=O)ccn1CCCCCCNc1ccnc2cc(Cl)ccc12 [listing 1 of 2 here] | 0.16 equiv | 80 nM | 4000 nM | 20 nM | – | – | – | –
2 | COc1cc([C@@H]2c3cc4c(cc3[C@H](O)[C@H]3COC(=O)[C@H]23)OCO4)cc(OC)c1OC [PODOFILOX] | – | – | – | – | 0.7 nM | – | – | –
3 | Cc1c(OCc2ccccc2)c(=O)ccn1C | – | – | – | – | – | inactive | – | –
4 | CCc1c(O)c(=O)ccn1CCNc1ccnc2cc(Cl)ccc12 | 1.1 equiv | – | – | 1240 nM | – | – | 890 nM | 400 nM
5 | COc1c(C)n(CCCCCCNc2ccnc3cc(Cl)ccc23)ccc1=O | 1.07 equiv | – | – | 90 nM | 47000 nM | – | 2800 nM | 130 nM
6 | CCN(CC)CCCC(C)Nc1ccnc2cc(Cl)ccc12 (stereo not drawn) [CHLOROQUINE] | 1.9 equiv | – | – | – | 34000 nM | – | – | –
7 | Cc1c(OCc2ccccc2)c(=O)ccn1CCCNc1ccnc2cc(Cl)ccc12 | 0.49 equiv | – | – | 2150 nM | 67000 nM | – | 3570 nM | 280 nM
8 | CCc1c(OC)c(=O)ccn1CCCCCCNc1ccnc2cc(Cl)ccc12 | 0.47 equiv | – | – | 220 nM | – | – | – | –
9 | Cc1c(O)c(=O)ccn1CCNc1ccnc2cc(Cl)ccc12 | 2.9 equiv | – | – | 280 nM | – | – | 32600 nM | 10800 nM
10 | CCc1c(O)c(=O)ccn1CCCNc1ccnc2cc(Cl)ccc12 | 1.3 equiv | – | – | 540 nM | 55000 nM | – | 380 nM | 120 nM
11 | CCc1c(O)c(=O)ccn1CCCCNc1ccnc2cc(Cl)ccc12 | 0.98 equiv | – | – | 160 nM | 76000 nM | – | 270 nM | 50 nM
12 | Cc1c(OCc2ccccc2)c(=O)ccn1CCCCNc1ccnc2cc(Cl)ccc12 | 0.27 equiv | – | – | 1120 nM | 119000 nM | – | 2200 nM | 50 nM
13 | Cc1c(OCc2ccccc2)c(=O)ccn1C(C)C | – | – | – | – | – | inactive | – | –
14 | CCc1c(OC)c(=O)ccn1CCCCNc1ccnc2cc(Cl)ccc12 | 1.71 equiv | – | – | 210 nM | – | – | – | –
15 | CCc1c(O)c(=O)ccn1CCCCCCNc1ccnc2cc(Cl)ccc12 | 0.49 equiv | – | – | 90 nM | 44000 nM | – | 610 nM | 80 nM
16 | Cc1c(O)c(=O)ccn1CCCCCCNc1ccnc2cc(Cl)ccc12 | 0.18 equiv | – | – | 70 nM | 4000 nM | – | 160 nM | 390 nM
17 | CCCCCCn1ccc(=O)c(OCc2ccccc2)c1C | – | – | – | – | – | inactive | – | –
18 | CCc1c(OCc2ccccc2)c(=O)ccn1CCCCNc1ccnc2cc(Cl)ccc12 | 0.19 equiv | – | – | 100 nM | 9000 nM | – | 130 nM | 4 nM
19 | CCc1c(OCc2ccccc2)c(=O)ccn1CCNc1ccnc2cc(Cl)ccc12 | 0.5 equiv | – | – | 2590 nM | 51000 nM | – | 8430 nM | 950 nM
20 | Cc1c(OCc2ccccc2)c(=O)ccn1CCCCCCNc1ccnc2cc(Cl)ccc12 | 0.25 equiv | – | – | 390 nM | 158000 nM | – | 4380 nM | 35700 nM
21 | Cc1c(O)c(=O)ccn1CCCCNc1ccnc2cc(Cl)ccc12 | 0.66 equiv | – | – | 80 nM | 185000 nM | – | 70 nM | 30 nM
22 | CCc1c(OCc2ccccc2)c(=O)ccn1CCCCCCNc1ccnc2cc(Cl)ccc12 [listing 2 of 2 here] | – | – | – | – | 7000 nM | – | 100 nM | 10 nM
23 | CCc1c(OCc2ccccc2)c(=O)ccn1CCCNc1ccnc2cc(Cl)ccc12 | 0.41 equiv | – | – | 2320 nM | 15000 nM | – | 71600 nM | 120 nM
24 | Cc1c(OCc2ccccc2)c(=O)ccn1CCNc1ccnc2cc(Cl)ccc12 | 0.93 equiv | – | – | 9930 nM | 54000 nM | – | 3150 nM | 490 nM
25 | CCCCCCCCn1ccc(=O)c(O)c1C | – | – | – | – | – | – | 1800 nM | 2380 nM
26 | CCCCCCCCn1ccc(=O)c(OCc2ccccc2)c1C | – | – | – | – | – | inactive | – | –
27 | COc1c(C)n(CCCCNc2ccnc3cc(Cl)ccc23)ccc1=O | 0.75 equiv | – | – | 760 nM | 27000 nM | – | 220 nM | 70 nM
